# Measurements published in PubChem BioAssay AID179 (DTP/NCI, 2004).
# Calls of active or inactive are those of the source.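 Rule for the calls: active = compounds giving half or more protection of infected cells from virus-caused growth loss, again on retest; inactive = the rest.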 Where a SMILES comes first, the peptide text is derived from it. [ ]: non-standard residue; d: D form. pGlu = O=C1CC[CH](C(=O)O)N1
# Tested on: CEM cells HIV-1 protection, formazan growth assay
# Experiment: NCI AIDS Antiviral Assay
# Conditions: for IC50: measured here: growth of uninfected CEM cells
# In short: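 Five concentrations of each compound were applied to infected and uninfected human CEM cells. Protection from HIV-1 was judged from growth measured with a soluble formazan assay.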
Compound,EC50 [µM],IC50 [µM],outcome
Nc1nc(Cl)cc(OCC2(CO)CC=CC2)n1,> 200,126,–
CCOC(=O)Nc1ccc2nc(Sc3ccc(C)cc3)sc2c1,> 20.9,1.23,–
CN(C(=O)c1cccs1)C(=S)N1CCN(c2ccccc2)CC1,> 55,30.9,–
O=Nc1c(O)c2ccccc2[nH]c1=O,> 200,45.7,–
COC(=O)N1CC2CC(=O)OCC2[C@@H]1CO (stereo not given in full),> 724,> 724,–
NC(=O)C1C(=O)c2cccc3c2C1CCCC3 (stereo not given),> 234,69.2,–
O=C1Cc2cn[nH]c2-c2ccccc2N1,–,–,inactive
COS(=O)(=O)OC1(SC)C=C(c2ccccc2)SS1 (stereo not given),> 200,107,–
O=Nc1ccc(Cl)cc1C(=O)c1ccccc1,> 200,32.4,–
CC1OC(OC2C(CO)OC(O[C@H]3CC[C@@]4(C)C(=CC[C@H]5[C@@H]6C[C@@H]7O[C@]8(CC[C@@H](C)CN8)[C@@H](C)[C@@H]7[C@@]6(C)CC[C@@H]54)C3)C(O)C2O)C(O)C(O)C1O (stereo not given in full),–,–,inactive
C=C(Cn1cnc2c(N)ncnc21)C(=O)OCC,–,–,inactive
CC(=O)OCCn1cnc2nc(Nc3ccccc3)nc(Cl)c21,> 200,70.8,–
CC(=O)NC1C(OCc2ccccc2)OC(COC(=O)CCCCCCCCCCNC(=O)c2cccc3c(=O)c4ccccc4[nH]c23)C(O)C1OC(C)C(=O)NC(C)C(=O)NC(CCC(N)=O)C(N)=O (stereo not given),> 7.41,> 7.41,–
C[C@]12CNC(=O)C=C1CC[C@@H]1C2CC[C@]2(C)NC(=O)CCC12 (stereo not given in full),–,–,inactive
Clc1ccc2nc3nc(-c4ccccc4)c(-c4ccccc4)nc3nc2c1,> 19.5,> 19.5,–
ClCCCC1COc2ccccc2O1 (stereo not given),> 200,> 200,–
O=C(NC12CC3CC(CC(F)(C3)C1)C2)c1ccccc1,> 132,52.5,–
CCN(CC)CCNC(=O)c1ccccc1NC(=O)C(=O)Nc1ccccc1C(=O)NCCN(CC)CC,> 6.92,> 6.92,–
CC(NC(=O)C(Cc1cnc[nH]1)NC(=O)C1CCC(=O)N1)C(N)=O (stereo not drawn) ([pGlu]-His-Ala-NH2; configuration not given here),> 200,> 200,–
Cc1ccc(Nc2nc3c(=O)n(C)c(=O)n(C)c3nc2Nc2ccc(C)cc2)cc1,> 200,2.04,–
C/C=C/C(CC(O)(C(F)(F)F)C(F)(F)F)=N/NC(N)=S,> 200,> 200,–
CSP(=S)(SC)SC(C)c1ccc(C)cc1 (stereo not given),–,–,inactive
N#Cc1c(N=C/C=C/c2ccccc2)c(C(=O)Nc2ccccc2)n2c1CCC2,> 200,> 200,–

Compound,EC50 [µM],IC50 [µM],outcome
O=C1/C(=C/c2ccccc2)CN(C(=O)C(F)(F)F)C/C1=C\c1ccccc1,–,–,inactive
COC(=O)C1CCC(=S)N1C(=O)OCc1ccccc1 (stereo not given),> 200,> 200,–
CCCCCC=C(c1cc(Cl)c(OC)c(C(=O)OCC)c1)c1cc(Cl)c(OC)c(C(=O)OCC)c1,> 10,> 10,–
COc1ccc(C2(CN(C)C)COc3cc(OC)c(OC)cc3C2=O)cc1OC (stereo not given),–,–,inactive
O=C1CSC(=Nc2ccccc2F)N1c1ccccc1F,> 107,> 107,–
CC(C)(C)c1ccc(O)c(C(O)c2cccnc2)c1 (stereo not given),> 200,61.7,–
O=C(c1ccc(O)c([N+](=O)[O-])c1)c1ccc(O)c([N+](=O)[O-])c1,> 200,45.7,–
COc1nc(NC2OC(COC(C)=O)C(OC(C)=O)C(OC(C)=O)C2OC(C)=O)c(C(=O)CCl)c(=O)n1C (stereo not given),–,–,inactive
CC1(CCCC2(C)CCNC2=O)OCCO1 (stereo not given),> 200,> 200,–
[N-]=[N+]=NC12CC3C4CC5CC3C(C1)C(C5)C4C2,> 282,162,–
CCCCCCCCCCCCC1N=C(N)NC2(CCCO2)C1C(=O)OC (stereo not given),> 200,5.75,–
CC1CCC23COC(=O)C2C(O)CCC3C1(C)CC(O)c1ccoc1 (stereo not given),> 145,> 145,–
CCCCN=C(NC#N)NCCCC,> 457,224,–
CCN(CC)c1ccc2cc(-n3nnc4ccccc43)c(=O)oc2c1,> 8.13,> 8.13,–
COC1=CC(=C(c2ccc(O)c(OC)c2)c2ccc(O)c(OC)c2)C=CC1=O,> 200,3.55,–
CO/C=N/c1cn2c(n1)CN=C2,> 200,> 200,–
C/C=C(\C)C(=O)c1c(OCC)cc(OCC)c2c(CCC)cc(=O)oc12,> 126,1.91,–
Cc1cc(N(CCC#N)CCC#N)ccc1/C=C/C(=O)Nc1ccccc1Cl,> 457,> 457,–
CCc1cccc(C(C)CC)c1NC(=O)CC1C(=O)Nc2ccccc2S1(=O)=O (stereo not given),> 12,> 12,–
O=C(OCCN1CCCC1)c1cc2ccccc2n1-c1ccccc1,> 200,46.8,–
CC(C)[Si](OC1=CCC[C@H]2NC(=O)[C@@H](Cc3ccc([N+](=O)[O-])cc3)[C@@]12C)(C(C)C)C(C)C,> 200,20.4,–
CC(C)C(=O)/C=C/c1ccc(Br)cc1,–,–,inactive
COc1cc(C(c2ccc3c(c2)OCO3)C2SCCCS2)cc(OC)c1OC (stereo not given),> 200,0.871,–

Compound,EC50 [µM],IC50 [µM],outcome
COc1cc(C)c2c(=O)c3ccccc3n(C)c2c1,2.82,30.2,–
C#CCC(C#C)N(CCc1ccsc1)Cc1ccccc1 (stereo not given),> 200,67.6,–
c1csc(-c2csc(-c3cccs3)c2)c1,> 200,40.7,–
COc1ccc(C[C@H]2COC(=O)[C@@H]2Cc2ccc(Br)cc2)cc1OC,> 200,24.5,–
CC(=O)NNc1nc(C)c(C(=O)/C=C/c2ccc(N(C)C)cc2)s1,> 55,> 55,–
COc1ccc(C(c2ccc(OC)cc2)N2C(=O)CCC2C(=O)O)cc1 (stereo not given),> 200,> 200,–
NC(=O)C1C[C@@H](O)CN1C(=O)c1ccc2c(c1)OCO2 (stereo not given in full),> 200,> 200,–
O=c1[nH]c2c(cnn2-c2ccccc2)c(=O)n1O,> 200,> 200,–
CC(/C=C/c1ccccc1Cl)=N\C(=S)NC(N)=S,> 200,20.9,–
FC(F)(F)c1ccccc1C=NC12CC3CC(CC(C3)C1)C2,> 30.9,> 30.9,–
CC(=O)OCC1OC(n2c3c(cc(C#N)c2=S)CCCCCC3)C(OC(C)=O)C(OC(C)=O)C1OC(C)=O (stereo not given),> 200,52.5,–
O=C1Cn2c(c3ccccc3nc2=O)N1,> 10,> 10,–
Cn1c2c(c3ccccc31)CC(=O)N1CCCC(C1)CC21OCCO1 (stereo not given),> 200,> 200,–
CC(=O)N/C(=C\c1cccc([N+](=O)[O-])c1)c1nc2c3c(ccc2[nH]1)C(=O)c1ccccc1C3=O,–,–,inactive
COc1ccc(-c2c(C3=NCCCN3)nnn2-c2ccccc2)cc1,> 759,282,–
CCOC(=O)C(=O)Nc1c(C(C)C)cccc1C(C)C,–,–,inactive
CC(C)=C=CP(=O)(O)c1ccccc1,> 200,> 200,–
Oc1c(C(O)c2ccccn2)ccc2ccccc12 (stereo not given),> 200,36.3,–
COC1=CC(=O)c2c(O)c3c(c(O)c2C1=O)C=C(C)OC3O (stereo not given),–,–,inactive
O=C(Nc1ccccc1)c1c(O)[nH]c(=O)[nH]c1=O,> 75.9,38.9,–
OCn1nc2c(C3OCCO3)cc3ccccc3n2c1=S,> 117,61.7,–
CNS(=O)(=O)NNS(=O)(=O)c1ccc2ccccc2c1,> 575,170,–
NC1OC(COC(=O)c2ccccc2)C(O)C(OC(=O)c2ccccc2)C1OC(=O)c1ccccc1 (stereo not given),> 200,0.933,–

Compound,EC50 [µM],IC50 [µM],outcome
O=C(CCC[n+]1ccccc1)Sc1ccccc1C(=O)NCc1ccc2c(c1)OCO2,> 16.6,3.39,–
COc1ccc(Cc2c3cc(O)c(=O)cc-3ccn2C)cc1OC,> 15.8,8.13,–
N#CC=Cc1ccc([N+](=O)[O-])s1 (mixture of isomers),> 2,0.166,–
O=C(O)C1[S][Bi]([S]C(C(=O)O)C([S][Bi]2[S]C(C(=O)O)C(C(=O)O)[S]2)C(=O)O)[S]C1C(=O)O (stereo not given),> 1.32,> 1.32,–
CC(=O)Oc1cc(C)c(Cl)c2c(OC(C)=O)cc(C(C)=O)c(O)c12,> 200,49,–
CCCCc1c2c(nc3c1CCCC3O)/C(=C/c1ccccc1)CCC2 (stereo not given),> 6.31,> 6.31,–
COc1c(OC)c(OC)c2c(=O)cc(-c3ccc4c(c3)OCO4)oc2c1OC,> 200,> 200,–
N#CC1=C(C#N)/C(=C(\C#N)C(C#N)C#N)N=C1N,> 100,37.2,–
Cc1csc2nc(-c3ccncc3)cn12,> 417,105,–
Cc1ccc2[nH]c3c(ncc4[nH]c5ccccc5c43)c2c1,> 19.1,3.89,–
C/C(=N\NS(=O)(=O)c1c(C)cc(C)cc1C)c1ccc[n+]([O-])n1,–,–,inactive
CC1=N/C(=C\c2ccc(-c3ccccc3)cc2)C(=O)O1,> 20,> 20,–
C=CCCC(=O)N1CCC(C(=O)OCC)C1=O (stereo not given),> 200,> 200,–
CC(NC(=O)OCc1ccccc1)NC(=O)OC(C)(C)C (stereo not given),> 200,102,–
COc1cc2c(c(OC)c1O)-c1ccc(OC)c(=O)cc1[C@@H](NC(=O)C(F)(F)F)CC2,> 2,0.0363,–
Nc1cccc(N=Nc2c(S(=O)(=O)O)cc3cc(Nc4ccc5c(O)c(N=Nc6cccc(N)c6)c(S(=O)(=O)O)cc5c4)ccc3c2O)c1,–,–,inactive
C[N+](C)(C)CC(=O)N/N=C/c1oc(-c2cccc([N+](=O)[O-])c2)c(-c2cccc([N+](=O)[O-])c2)c1[N+](=O)[O-],> 9.77,> 9.77,–
O=C(O)CC(O)(c1ccccc1C(=O)O)c1cccc2ccccc12 (stereo not given),–,–,inactive
COc1c(CCl)cc(-c2cc(=O)c3ccccc3s2)cc1CCl,> 200,> 200,–
C[N+](C)(C)CCNP(=O)(Oc1ccccc1)c1ccccc1 (stereo not given),> 562,> 562,–
COc1cc2c3c(c1)nc(C)n3C(=O)C(C)S2 (stereo not given),> 200,50.1,–
